From ChEMBL document CHEMBL1201862, “PubChem BioAssay data set” (2004)
The source made the active and inactive calls.

How the values were obtained:
[1] = target: Peroxisome proliferator-activated receptor gamma/Nuclear receptor coactivator 2 (Homo sapiens, UniProt P37231); assay: (§1) TR-FRET dose response biochemical High Throughput Screening assay for agonists of the steroid receptor coactivator 2 (SRC-2) recruitment by the peroxisome proliferator-activated receptor gamma (PPAR gamma): non-selective agonists. [Related pubchem assays: 1297, 1032 ]; format: functional
[2] = target: Peroxisome proliferator-activated receptor gamma/Nuclear receptor coactivator 1 (Homo sapiens, UniProt P37231); assay: as §1, with “1 (SRC-1)” for “2 (SRC-2)”, “assays (depositor defined):AID1300, AID1808, AID504735, AID631]” for “assays: 1297, 1032 ]”; format: protein assay
Peroxisome proliferator-activated receptor gamma/Nuclear receptor coactivator 1, sequence (P37231 whole entry): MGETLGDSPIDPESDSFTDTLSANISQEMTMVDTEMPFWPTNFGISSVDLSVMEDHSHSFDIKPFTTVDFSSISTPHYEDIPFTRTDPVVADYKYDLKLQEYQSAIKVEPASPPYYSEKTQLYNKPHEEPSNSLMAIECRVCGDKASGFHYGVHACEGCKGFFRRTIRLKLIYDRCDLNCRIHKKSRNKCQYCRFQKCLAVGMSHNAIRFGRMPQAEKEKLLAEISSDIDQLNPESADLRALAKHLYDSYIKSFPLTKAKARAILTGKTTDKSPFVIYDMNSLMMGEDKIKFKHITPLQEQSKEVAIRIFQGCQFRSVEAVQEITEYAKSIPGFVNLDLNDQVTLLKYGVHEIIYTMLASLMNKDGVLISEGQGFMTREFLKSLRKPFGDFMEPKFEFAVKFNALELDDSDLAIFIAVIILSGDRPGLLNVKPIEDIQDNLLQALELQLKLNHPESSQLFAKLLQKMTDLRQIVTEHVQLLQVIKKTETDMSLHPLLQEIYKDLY
Peroxisome proliferator-activated receptor gamma/Nuclear receptor coactivator 1, sequence (Q15788 whole entry, further chain): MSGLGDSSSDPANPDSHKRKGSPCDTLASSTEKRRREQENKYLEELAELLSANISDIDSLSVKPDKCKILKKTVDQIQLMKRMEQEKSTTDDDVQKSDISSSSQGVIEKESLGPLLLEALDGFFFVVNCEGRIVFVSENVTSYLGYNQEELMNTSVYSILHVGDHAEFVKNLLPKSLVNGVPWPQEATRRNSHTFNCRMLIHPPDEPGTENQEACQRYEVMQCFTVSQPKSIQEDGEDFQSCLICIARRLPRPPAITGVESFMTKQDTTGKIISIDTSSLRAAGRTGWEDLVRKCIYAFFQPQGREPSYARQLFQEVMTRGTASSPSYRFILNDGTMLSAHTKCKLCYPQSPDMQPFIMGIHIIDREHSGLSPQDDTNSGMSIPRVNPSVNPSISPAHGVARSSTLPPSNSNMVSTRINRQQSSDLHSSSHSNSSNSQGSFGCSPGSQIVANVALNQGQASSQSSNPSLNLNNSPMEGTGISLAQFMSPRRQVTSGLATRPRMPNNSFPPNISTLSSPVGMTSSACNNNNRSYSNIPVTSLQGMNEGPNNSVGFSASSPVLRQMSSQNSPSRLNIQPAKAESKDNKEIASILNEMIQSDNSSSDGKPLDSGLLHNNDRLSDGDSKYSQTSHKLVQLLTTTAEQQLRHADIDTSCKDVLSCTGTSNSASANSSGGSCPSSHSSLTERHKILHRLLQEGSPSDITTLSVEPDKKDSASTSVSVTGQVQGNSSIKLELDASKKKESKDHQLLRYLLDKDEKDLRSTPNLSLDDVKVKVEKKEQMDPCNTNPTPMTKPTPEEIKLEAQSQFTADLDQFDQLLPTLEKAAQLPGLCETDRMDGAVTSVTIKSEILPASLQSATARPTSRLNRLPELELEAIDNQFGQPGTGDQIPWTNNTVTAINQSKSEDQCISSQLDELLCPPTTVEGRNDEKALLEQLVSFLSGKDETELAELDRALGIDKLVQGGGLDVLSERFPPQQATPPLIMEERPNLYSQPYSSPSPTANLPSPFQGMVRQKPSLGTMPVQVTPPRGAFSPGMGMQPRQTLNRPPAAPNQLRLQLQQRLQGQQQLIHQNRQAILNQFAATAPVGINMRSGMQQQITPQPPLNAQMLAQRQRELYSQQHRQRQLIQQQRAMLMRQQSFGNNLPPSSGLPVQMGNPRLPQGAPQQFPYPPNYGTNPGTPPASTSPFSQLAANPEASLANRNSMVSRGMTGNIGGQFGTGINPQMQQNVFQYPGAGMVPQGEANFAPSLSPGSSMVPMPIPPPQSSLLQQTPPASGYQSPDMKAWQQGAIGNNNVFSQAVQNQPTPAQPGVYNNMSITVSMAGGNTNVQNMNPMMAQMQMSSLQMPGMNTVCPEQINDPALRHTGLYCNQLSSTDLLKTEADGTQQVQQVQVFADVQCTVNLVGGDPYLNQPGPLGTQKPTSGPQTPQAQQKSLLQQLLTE

Cytochrome P450 2C9 = Cytochrome P450 2C9 (Homo sapiens, UniProt P11712)
Cytochrome P450 2C9, sequence (P11712 whole entry): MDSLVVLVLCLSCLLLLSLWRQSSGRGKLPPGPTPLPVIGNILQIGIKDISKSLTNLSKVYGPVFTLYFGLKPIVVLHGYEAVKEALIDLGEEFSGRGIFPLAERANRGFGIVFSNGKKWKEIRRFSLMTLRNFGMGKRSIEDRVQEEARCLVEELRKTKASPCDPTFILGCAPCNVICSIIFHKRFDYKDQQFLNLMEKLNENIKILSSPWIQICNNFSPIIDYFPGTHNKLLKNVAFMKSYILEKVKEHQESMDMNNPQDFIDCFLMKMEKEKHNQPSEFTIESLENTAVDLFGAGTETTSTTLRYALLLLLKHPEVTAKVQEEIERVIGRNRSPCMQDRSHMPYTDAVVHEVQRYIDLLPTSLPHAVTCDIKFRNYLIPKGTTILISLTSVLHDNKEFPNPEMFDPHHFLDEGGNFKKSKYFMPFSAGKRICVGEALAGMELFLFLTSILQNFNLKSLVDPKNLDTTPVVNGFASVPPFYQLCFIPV

[3] = target: Peroxisome proliferator-activated receptor gamma/Nuclear receptor coactivator 3 (Homo sapiens, UniProt P37231); assay: as §1, with “3 (SRC-3)” for “2 (SRC-2)”, “1301 (Confirmation screen.), 1048 (Primary screen.)]” for “1297, 1032 ]”; format: functional
Peroxisome proliferator-activated receptor gamma/Nuclear receptor coactivator 3, sequence (P37231 whole entry): as the sequence (P37231 whole entry) above
Peroxisome proliferator-activated receptor gamma/Nuclear receptor coactivator 3, sequence (Q9Y6Q9 whole entry, further chain): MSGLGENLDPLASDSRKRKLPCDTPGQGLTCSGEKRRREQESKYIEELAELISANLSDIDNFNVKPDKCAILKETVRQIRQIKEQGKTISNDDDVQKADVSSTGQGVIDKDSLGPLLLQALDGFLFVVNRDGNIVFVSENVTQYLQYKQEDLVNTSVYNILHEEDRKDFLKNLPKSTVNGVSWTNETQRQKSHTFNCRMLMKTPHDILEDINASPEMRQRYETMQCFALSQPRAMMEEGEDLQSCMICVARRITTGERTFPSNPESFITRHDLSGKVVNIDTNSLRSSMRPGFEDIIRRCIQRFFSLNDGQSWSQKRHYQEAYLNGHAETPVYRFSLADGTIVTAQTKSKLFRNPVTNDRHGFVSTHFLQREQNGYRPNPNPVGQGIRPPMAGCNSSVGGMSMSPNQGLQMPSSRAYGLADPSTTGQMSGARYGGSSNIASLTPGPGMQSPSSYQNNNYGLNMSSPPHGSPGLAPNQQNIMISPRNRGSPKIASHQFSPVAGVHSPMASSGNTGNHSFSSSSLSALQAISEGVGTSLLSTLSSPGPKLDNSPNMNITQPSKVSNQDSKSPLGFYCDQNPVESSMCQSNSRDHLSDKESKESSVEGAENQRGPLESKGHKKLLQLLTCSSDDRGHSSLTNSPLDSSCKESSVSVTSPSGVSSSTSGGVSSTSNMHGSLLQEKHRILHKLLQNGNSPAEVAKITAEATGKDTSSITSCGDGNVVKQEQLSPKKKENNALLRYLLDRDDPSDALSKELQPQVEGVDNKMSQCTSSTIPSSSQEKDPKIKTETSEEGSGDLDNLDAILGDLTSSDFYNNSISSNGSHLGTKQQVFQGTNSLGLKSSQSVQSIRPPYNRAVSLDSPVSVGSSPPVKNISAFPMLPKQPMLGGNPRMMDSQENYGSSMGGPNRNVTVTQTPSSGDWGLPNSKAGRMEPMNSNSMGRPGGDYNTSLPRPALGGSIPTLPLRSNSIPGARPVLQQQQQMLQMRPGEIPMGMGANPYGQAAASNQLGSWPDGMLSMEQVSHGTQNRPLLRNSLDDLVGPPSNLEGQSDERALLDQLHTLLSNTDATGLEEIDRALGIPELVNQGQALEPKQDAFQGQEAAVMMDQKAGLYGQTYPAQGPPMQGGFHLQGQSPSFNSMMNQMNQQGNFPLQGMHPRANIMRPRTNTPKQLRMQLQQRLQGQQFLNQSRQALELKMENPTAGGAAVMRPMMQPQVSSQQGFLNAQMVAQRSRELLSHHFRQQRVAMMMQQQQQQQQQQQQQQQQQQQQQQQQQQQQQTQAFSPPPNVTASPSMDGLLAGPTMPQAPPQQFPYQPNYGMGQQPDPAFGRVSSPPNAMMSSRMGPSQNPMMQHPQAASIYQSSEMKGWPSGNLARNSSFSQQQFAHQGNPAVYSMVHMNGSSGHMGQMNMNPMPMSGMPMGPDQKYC

Fatty acid synthase [4] = target: T1, Fatty acid synthase (Homo sapiens, UniProt P49327); assay: inhibition of human FAS-TE enzyme activity – biochemical, endpoint fluorescence intensity, uHTS hits, dose response (AID 624327); format: functional;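 also: fluorescence from hydrolysis of an O-methyl fluorescein acyl ester substrate by the enzyme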
[5] = target: T2, Replicative DNA helicase DnaB (Mycobacterium tuberculosis, UniProt P9WMR3); assay: DnaB intein splicing inhibitors, dose response, biochemical, cell-free fluorescence (AID 449749); format: functional
T2 sequence (P9WMR3 whole entry): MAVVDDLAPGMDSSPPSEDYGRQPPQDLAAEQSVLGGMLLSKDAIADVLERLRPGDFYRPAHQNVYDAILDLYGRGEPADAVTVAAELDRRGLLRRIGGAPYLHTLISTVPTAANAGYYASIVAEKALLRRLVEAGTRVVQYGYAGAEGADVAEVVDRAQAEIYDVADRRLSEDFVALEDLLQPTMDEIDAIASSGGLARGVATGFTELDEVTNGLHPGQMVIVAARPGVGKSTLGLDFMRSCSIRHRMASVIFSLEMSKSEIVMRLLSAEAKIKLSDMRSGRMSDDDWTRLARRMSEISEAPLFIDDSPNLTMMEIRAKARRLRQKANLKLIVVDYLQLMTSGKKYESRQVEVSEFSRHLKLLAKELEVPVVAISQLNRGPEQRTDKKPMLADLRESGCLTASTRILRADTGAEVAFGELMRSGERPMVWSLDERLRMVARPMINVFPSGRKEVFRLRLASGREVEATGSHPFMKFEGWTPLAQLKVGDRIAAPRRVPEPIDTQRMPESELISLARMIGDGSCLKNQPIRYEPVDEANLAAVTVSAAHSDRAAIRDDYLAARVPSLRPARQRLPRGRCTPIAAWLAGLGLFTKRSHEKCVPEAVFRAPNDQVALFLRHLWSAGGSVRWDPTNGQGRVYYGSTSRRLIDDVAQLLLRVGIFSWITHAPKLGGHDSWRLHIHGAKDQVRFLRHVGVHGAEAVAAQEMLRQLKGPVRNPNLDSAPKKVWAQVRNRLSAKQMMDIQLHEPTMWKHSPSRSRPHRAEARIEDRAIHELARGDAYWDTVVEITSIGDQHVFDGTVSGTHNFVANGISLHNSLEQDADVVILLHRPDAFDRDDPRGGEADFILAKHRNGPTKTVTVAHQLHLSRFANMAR

Fatty acid synthase [6] = target: T1, Fatty acid synthase; assay: inhibition of human FAS-TE enzyme activity – biochemical, kinetic fluorescence intensity, dose response (AID 624326); format: functional;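 also: rate of fluorescence rise from hydrolysis of a fluorogenic O-methyl fluorescein ester substrate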
[7] = target: T3, Microphthalmia-associated transcription factor (Homo sapiens, UniProt O75030); assay: reducers of TRPM1 reporter luminescence, concentration series – cell-based, SK-MEL-5, cherry-picked, set 3, MITF inhibitor project, dose response (AID 493073); format: functional;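 also: SK-MEL-5 melanoma cells with luciferase driven by the MITF target TRPM1 promoter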
T3 sequence (O75030 whole entry): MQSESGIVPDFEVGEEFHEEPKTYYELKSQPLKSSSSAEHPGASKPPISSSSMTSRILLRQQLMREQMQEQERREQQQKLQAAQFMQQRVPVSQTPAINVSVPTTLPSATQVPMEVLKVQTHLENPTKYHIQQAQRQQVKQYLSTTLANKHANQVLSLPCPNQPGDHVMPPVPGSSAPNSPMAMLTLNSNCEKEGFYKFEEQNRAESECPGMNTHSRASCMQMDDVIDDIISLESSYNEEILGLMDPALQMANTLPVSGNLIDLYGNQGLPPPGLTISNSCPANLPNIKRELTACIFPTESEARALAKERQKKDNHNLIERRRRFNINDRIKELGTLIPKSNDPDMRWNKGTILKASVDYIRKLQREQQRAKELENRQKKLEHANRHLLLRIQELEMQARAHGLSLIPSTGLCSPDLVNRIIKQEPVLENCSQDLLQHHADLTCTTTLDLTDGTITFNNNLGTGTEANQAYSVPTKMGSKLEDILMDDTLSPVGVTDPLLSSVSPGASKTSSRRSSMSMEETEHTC

Protein RecA = target: T4, Protein RecA (Mycobacterium tuberculosis, UniProt P9WHJ3); assay: Fluorescence Cell-Free Homogeneous Dose Retest to Identify Inhibitors of RecA-Intein Splicing Activity. [Related pubchem assays (depositor defined):AID2097, AID2223, AID489010, AID492950]; format: functional
T4 sequence (P9WHJ3 whole entry): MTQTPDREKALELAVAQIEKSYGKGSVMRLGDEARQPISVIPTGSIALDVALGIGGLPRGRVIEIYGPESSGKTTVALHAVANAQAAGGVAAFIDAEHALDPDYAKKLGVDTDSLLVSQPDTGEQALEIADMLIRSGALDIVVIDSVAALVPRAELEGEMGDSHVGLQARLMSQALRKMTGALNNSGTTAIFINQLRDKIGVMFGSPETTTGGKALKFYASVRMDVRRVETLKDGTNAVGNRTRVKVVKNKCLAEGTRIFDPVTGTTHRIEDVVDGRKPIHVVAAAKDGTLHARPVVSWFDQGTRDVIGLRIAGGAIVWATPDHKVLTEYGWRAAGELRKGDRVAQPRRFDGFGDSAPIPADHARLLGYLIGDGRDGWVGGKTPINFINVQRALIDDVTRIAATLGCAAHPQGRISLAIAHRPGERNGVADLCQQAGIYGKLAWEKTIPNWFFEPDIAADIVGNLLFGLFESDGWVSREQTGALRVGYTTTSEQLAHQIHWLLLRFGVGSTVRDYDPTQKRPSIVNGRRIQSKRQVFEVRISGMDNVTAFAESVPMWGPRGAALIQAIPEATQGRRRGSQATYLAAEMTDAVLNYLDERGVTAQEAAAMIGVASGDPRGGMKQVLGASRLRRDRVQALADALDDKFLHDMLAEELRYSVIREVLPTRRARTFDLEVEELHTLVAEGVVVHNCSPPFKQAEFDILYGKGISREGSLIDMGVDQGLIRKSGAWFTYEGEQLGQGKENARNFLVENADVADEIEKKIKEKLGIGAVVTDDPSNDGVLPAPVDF

HeLa = assay: ATP-based viability loss in HeLa cells – cell-based, CellTiter-Glo luminescence, cherry-pick samples, cytotoxicity control for MITF activator project, dose response (AID 540259); format: functional; conditions: Homo sapiens
HEK293 = assay: EBV LMP1 TES2 canonical NF-kB signalling blockers – cell-based, HEK293, luciferase, cherry-pick, dose response (AID 588343); format: functional; conditions: Homo sapiens
Cytochrome P450 3A4 [8] = target: T5, Cytochrome P450 3A4 (Homo sapiens, UniProt P08684);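 also: CYP3A4 tested as one member of a cytochrome P450 panel screen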
T5 sequence (P08684 whole entry): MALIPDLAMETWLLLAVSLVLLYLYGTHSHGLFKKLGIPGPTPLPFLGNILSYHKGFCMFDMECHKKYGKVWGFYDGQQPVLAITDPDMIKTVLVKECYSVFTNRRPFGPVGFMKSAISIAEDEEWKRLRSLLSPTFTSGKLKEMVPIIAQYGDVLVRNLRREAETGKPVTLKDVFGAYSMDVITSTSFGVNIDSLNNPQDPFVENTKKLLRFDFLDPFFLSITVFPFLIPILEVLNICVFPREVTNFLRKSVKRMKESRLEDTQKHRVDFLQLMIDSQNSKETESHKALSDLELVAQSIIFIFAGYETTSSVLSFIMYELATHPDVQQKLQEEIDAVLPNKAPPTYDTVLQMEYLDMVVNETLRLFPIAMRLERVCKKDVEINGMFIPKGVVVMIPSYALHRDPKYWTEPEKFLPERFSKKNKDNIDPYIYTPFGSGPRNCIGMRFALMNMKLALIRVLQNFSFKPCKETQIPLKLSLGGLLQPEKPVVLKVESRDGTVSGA

[9] = loss of viability in HepG2 cells – cell-based, CellTiter-Glo, cherry-picked, cytotoxicity control for Shn3 inhibitor project, dose response (AID 624134); format: functional
[10] = reduction of Shn3 3'UTR-driven luciferase in osteoblasts – cell-based, Clone20 osteoblasts, firefly luciferase, cherry-picked, dose response (AID 624132); format: functional;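 also: firefly luciferase luminescence from reporter carrying the Shn3 3'UTR in osteoblasts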
[11] = Trypanosoma cruzi growth suppression in host cells – NIH3T3 host cells, beta-gal luminescence, confirmation (AID 2044); format: functional, cell-based;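 also: intracellular parasites grown in NIH/3T3 mouse fibroblasts as host cells; luminescent beta-galactosidase reporter signal from transgenic T. cruzi replicating inside host cells; inhibitors lower the luminescence signal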
Cytochrome P450 3A4 [12] = target: T5, Cytochrome P450 3A4; remark: listed apart in the source
[13] = non-specific 3'UTR reporter inhibition in Clone20-Shn3RL – cell-based, Renilla luciferase, cherry-picked, counter-screen for Shn3 inhibitor project, dose response (AID 624133); format: functional
INS1 = assay: INS-1E survival protection against cytokine death – cell-based, luminescence, retest, dose response (AID 449756); format: functional; conditions: Rattus norvegicus;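 also: cell death triggered by IL-1 beta plus TNF-alpha plus IFN-gamma mixture; protective hits raise ATP signal compared with cytokine alone wells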
[14] = NIH3T3 cell viability loss – ATP luminescence, mouse fibroblasts, counter-screen, dose response (AID 2010); format: functional, cell-based;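 also: cells exposed to compound for about 90 hours before reading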
[15] = target: 26S proteasome non-ATPase regulatory subunit 14 (Homo sapiens, UniProt O00487); assay: inhibition of proteasome subunit RPN11 – biochemical, fluorescence polarization, uHTS hits, confirmation (AID 602368); format: functional
[16] = target: 72 kDa type IV collagenase (Homo sapiens, UniProt P08253); assay: Dose Response validation of uHTS RPN11 inhibitor hits using a MMP-2 Fluorescence assay.; format: functional
Prothrombin = Prothrombin (Bos taurus, UniProt P00735); assay: thrombin protease inhibitors – biochemical, fluorescence polarization, uHTS hits, dose response (AID 602369); format: functional
[17] = Luminescence Cell-Based Dose Confirmation HTS to Identify Activators of 5'UTR Stem-Loop Driven Alpha-Synuclein mRNA Translation in H4 Neuroglioblastoma Cells. [Related pubchem assays: 1829 (Project Summary), 1814 (Primary HTS)]; format: functional
[18] = Luminescence Cell-Based Dose Response HTS to Identify Activators of Luciferase Translation or Activity in H4 […] Cells. [Related pubchem assays: 1829 (Project Summary), 1814 (Primary HTS)]; format: functional
H4 = assay: Luminescence Cell-Based Dose Response HTS to Identify Activators of 5'UTR Stem-Loop Driven Prion Protein mRNA Translation in H4 Neuroglioblastoma Cells. [Related pubchem assays: 1829 (Project Summary), 1814 (Primary HTS)]; format: functional; conditions: Homo sapiens
[19] = target: Glucose-6-phosphate 1-dehydrogenase (Homo sapiens, UniProt P11413); assay: inhibition of Homo sapiens G6PD, dose series – biochemical, fluorescence, selectivity assay for P. falciparum G6PD inhibitor project, dose response (AID 504792); format: functional

With `O=c1c2c(-c3cccs3)csc2[nH]c(=S)n1-c1ccccc1` the EC50 [1] was 11.6 µM (not active), the EC50 [2] was 12.8 µM (inactive) and the AC50 (Cytochrome P450 2C9) was 8.91 µM (inconclusive). For the same molecule, the EC50 [3] was > 79.4 µM (not active).

In the case of `CC(=O)N(C1CC(C)C(C#N)(C#N)C1(C#N)C#N)N(C)C` (configuration not stated), the IC50 (Fatty acid synthase [4]) was 8.68 µM (active), the AC50 [5] was 1.68 µM (active) and the IC50 (Fatty acid synthase [6]) was 6.1 µM (active). The AC50 [7] was 9.24 µM (active) and the EC50 (Protein RecA) was 3.17 µM (active).

For `Cc1cc(C(=O)OCC(=O)c2ccc(Br)s2)c(C)o1`, the EC50 [1] was 14.6 µM (not active), the EC50 [2] was > 79.4 µM (inactive) and the EC50 [3] was > 79.4 µM (not active).

In the case of `CC(C)(C)C(=O)c1cnc(Nc2ccccc2Cl)s1`, the AC50 (HeLa) was 121 µM (active).

With `CC1CCN(C(=O)/C(=C\c2cccs2)NC(=O)c2ccccc2)CC1` the AC50 (HEK293) was > 350 µM (inactive).

In the case of `N#Cc1cc(C#N)c(N2CCN(c3ccccn3)CC2)nc1N`, the AC50 (HeLa) was 31.7 µM (active).

For `O=C1CCCc2ccccc2N1Cc1cccc(Cl)c1`, the AC50 (Cytochrome P450 3A4 [8]) was “inconclusive”.

For `O=C(Nc1ccc(-c2nc3ccccc3o2)cc1)c1ccc(N2CCOCC2)c([N+](=O)[O-])c1`, the AC50 [9] was > 70 µM (inactive), the AC50 [10] was 3.35 µM (active) and the EC50 [11] was 1.93 µM (active). The AC50 (Cytochrome P450 3A4 [12]) was 11.2 µM (inconclusive), the AC50 (Cytochrome P450 2C9) was 2.82 µM (inconclusive) and the AC50 [13] was 3.62 µM (active). The AC50 (INS1) was 5.18 µM (active) and the EC50 [14] was > 60 µM (not active).

For `Cc1cccc2sc(NC(=O)C3CCCN(S(=O)(=O)c4cccc5nonc45)C3)nc12` (configuration not stated), the IC50 [15] was 25.9 µM (active), the IC50 [16] was > 100 µM (inactive) and the IC50 (Prothrombin) was 26.2 µM (active).

In the case of `CC(=O)c1sc(N/N=C/c2cccc(O)c2)nc1C`, the EC50 [17] was 6.61 µM (active), the EC50 [18] was 8.4 µM (active) and the AC50 (HeLa) was 77.2 µM (active). For the same molecule, the EC50 (H4) was 23.2 µM (active).

With `Cc1cc(SCC(=O)N/N=C/c2ccco2)nc2ccccc12` the IC50 [19] was 57.4 µM (inactive).
